Key:
Format in all cases: biochemical
[1] = molecular target: CDK4/cyclin D3 (Homo sapiens, UniProt P11802); test: Kinase activity assay, Caliper Mobility Shift Assay, CDK4/cyclin D3; conditions: 10 nM kinase, ATP 250 μM, 150 minutes at room temperature
Protocol: (§1) The inhibitory effect of compounds against the kinase CDK4/cyclin D3 was detected by Caliper Mobility Shift Assay method. The final concentration of the compounds to be tested was set at 10 concentrations starting from 1 μM by 3-fold serial dilution. 5 μL of compounds at 5-fold final concentration and 10 μL of CDK4/cyclin D3 kinase solution at a final concentration of 10 nM was added to a 384-well reaction plate, respectively. The plate was pre-incubated for 10 min at room temperature (with negative control wells containing 10 μL of kinase buffer and 5 μL of 5% DMSO; positive control wells containing 10 μL of kinase solution and 5 μL of 5% DMSO). The reaction was initiated by adding 10 μL of ATP at a final concentration of 250 μM and the corresponding substrate peptide mixture at room temperature for 150 minutes. 30 μL of stop detection solution containing EDTA was added to stop the kinase reaction. Caliper EZ Reader was used to read the conversion rate. Inhibition rate %=(average conversion rate of positive control %−conversion rate of sample %)/(average conversion rate of positive control %−average conversion rate of negative control %). wherein: negative control wells represent the conversion rate readings of wells without enzymatic activity; positive control wells represent conversion readings for wells with no compound inhibition. The log(inhibitor) vs. response—Variable slope of the analysis software GraphPad Prism 5 was used with log concentration value as the X-axis and the percent inhibition rate as the Y-axis to fit the dose-response curve, the IC50 value of each compound on the enzyme activity was thus obtained. Calculation formula: Y=Bottom+(Top−Bottom)/(1+10^((Log IC50−X)*HillSlope)).

[2] = molecular target: CDK6/Cyclin D3 (Homo sapiens, UniProt Q00534); test: Kinase activity assay, CDK6/Cyclin D3 (tested in a similar manner); conditions: tested in a similar manner to CDK4/cyclin D3
Protocol: as §1
(§2) The IC50 values for CDK6/Cyclin D3 and CDK2/Cyclin A2 of compounds of the present disclosure were tested in a similar manner.

[3] = molecular target: CDK2/Cyclin A2 (Homo sapiens, UniProt P24941); test: Kinase activity assay, CDK2/Cyclin A2 (tested in a similar manner); conditions: tested in a similar manner to CDK4/cyclin D3
Protocol: as §1, §2

Chain of CDK6/Cyclin D3 (Q00534 whole entry, species assumed): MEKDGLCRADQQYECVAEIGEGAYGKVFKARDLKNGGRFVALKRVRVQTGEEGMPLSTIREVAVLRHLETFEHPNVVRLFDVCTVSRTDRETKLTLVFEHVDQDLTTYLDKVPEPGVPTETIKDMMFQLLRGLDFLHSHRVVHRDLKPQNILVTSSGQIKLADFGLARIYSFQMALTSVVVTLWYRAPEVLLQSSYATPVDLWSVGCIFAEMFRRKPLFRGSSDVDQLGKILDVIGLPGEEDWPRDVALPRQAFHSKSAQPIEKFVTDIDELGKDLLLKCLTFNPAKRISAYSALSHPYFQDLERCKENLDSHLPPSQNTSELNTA
Chain of CDK6/Cyclin D3 (P30281 whole entry partner, species assumed): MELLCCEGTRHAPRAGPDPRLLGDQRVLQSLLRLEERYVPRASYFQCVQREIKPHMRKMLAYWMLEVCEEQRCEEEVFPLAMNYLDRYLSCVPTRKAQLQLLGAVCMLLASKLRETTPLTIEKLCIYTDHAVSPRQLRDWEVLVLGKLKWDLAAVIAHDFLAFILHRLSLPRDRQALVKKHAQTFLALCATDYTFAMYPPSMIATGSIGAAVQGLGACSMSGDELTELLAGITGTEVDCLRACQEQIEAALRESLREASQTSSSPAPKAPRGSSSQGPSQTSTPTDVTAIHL
Chain of CDK4/cyclin D3 (P11802 whole entry, species assumed): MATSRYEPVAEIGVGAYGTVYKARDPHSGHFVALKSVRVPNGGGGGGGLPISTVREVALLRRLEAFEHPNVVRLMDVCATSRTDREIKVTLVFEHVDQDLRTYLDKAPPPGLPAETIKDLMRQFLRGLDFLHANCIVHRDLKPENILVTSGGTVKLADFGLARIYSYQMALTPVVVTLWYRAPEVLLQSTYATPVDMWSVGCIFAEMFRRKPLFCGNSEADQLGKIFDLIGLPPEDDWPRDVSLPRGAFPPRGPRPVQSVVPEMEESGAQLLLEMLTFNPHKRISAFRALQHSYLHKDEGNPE
Chain of CDK4/cyclin D3 (P30281 whole entry partner, species assumed): as the sequence (P30281 whole entry partner, species assumed) above

| IC50 [1] [nM] | IC50 [2] [nM] | IC50 [3] [nM] | SMILES |
| --- | --- | --- | --- |
| 3 | 9 | 5 | CC(C)c1noc2ccc3cnc(Nc4ccc(C(=O)N5CCNCC5)cc4)nc3c12 [Compound I-42, (4-((9-isopropylisoxazolo[5,4-H]quinazolin-2-yl)amino)phenyl) (piperazin-1-yl)methanone] |
| 2 | 4 | 10 | CC(C)c1noc2ccc3cnc(Nc4ccc(OCCN(C)C)cc4)nc3c12 [Compound I-44, N-(4-(2-(dimethylamino)ethoxy)phenyl)-9-isopropylisoxazolo[5,4-h]quinazolin-2-amine] |
| 3 | 8 | 6 | CC(C)c1noc2ccc3cnc(Nc4ccc(N5CCNCC5)cc4)nc3c12 [Compound I-27, 9-isopropyl-N-(4-(piperazin-1-yl)phenyl)isoxazolo[5,4-H]quinazolin-2-amine] |
| 100 | 245 | 140 | CC(C)c1noc2ccc3cnc(Nc4ccc(N5CCC(CCCO)CC5)cc4)nc3c12 [Compound I-30, 3-(1-(4-((9-isopropylisoxazolo[5,4-h]quinazolin-2-yl)amino)phenyl)piperidin-4-yl)propan-1-ol] |
| 3 | 7 | 10 | CC(C)c1noc2ccc3cnc(Nc4ccc(N5CCNCC5)c(F)c4)nc3c12 [Compound I-33, N-(3-fluoro-4-(piperazin-1-yl)phenyl)-9-isopropylisoxazolo[5,4-H] quinazolin-2-amine] |
| 14 | 36 | 10 | CC(C)c1noc2ccc3cnc(Nc4ccc(N5CCOCC5)cc4)nc3c12 [Compound I-29, 9-isopropyl-N-(4-morpholinophenyl) isoxazolo[5,4-H]quinazolin-2-amine] |
| 3 | 9 | 12 | CC(C)c1noc2ccc3cnc(Nc4ccc(N5CCN(C)CC5)c(F)c4)nc3c12 [Compound I-34] |
| 2 | 5 | 4 | CCN1CCN(c2ccc(Nc3ncc4ccc5onc(C(C)C)c5c4n3)cc2)CC1 [Compound I-28, N-(4-(4-ethylpiperazin-1-yl)phenyl)-9-isopropylisoxazolo[5,4-h] quinazolin-2-amine] |

More lines, now with the values behind:

| SMILES | IC50 [1] [nM] | IC50 [2] [nM] | IC50 [3] [nM] |
| --- | --- | --- | --- |
| CC(C)c1noc2c1-c1nc(Nc3ccc(N4CCN(C)CC4)c(F)c3)ncc1CC2 [Compound I-39, N-(3-fluoro-4-(4-methylpiperazin-1-yl)phenyl)-9-isopropyl-5,6-dihydroisoxazolo[5,4-H]quinazolin-2-amine] | 6 | 17 | 11 |
| CCN1CCN(c2ccc(Nc3ncc4ccc5onc(C(C)C)c5c4n3)cc2F)CC1 [Compound I-35, N-(4-(4-ethylpiperazin-1-yl)-3-fluorophenyl)-9-isopropylisoxazolo[5,4-H]quinazolin-2-amine] | 3 | 8 | 10 |
| COc1cc(N2CCN(C)CC2)ccc1Nc1ncc2ccc3onc(C(C)C)c3c2n1 [Compound I-31, 9-isopropyl-N-(2-methoxy-4-(4-methylpiperazin-l-yl)phenyl)isoxazolo [5,4-H]quinazolin-2-amine] | 98 | 340 | 244 |
| CC(C)c1noc2ccc3cnc(Nc4cccc(S(N)(=O)=O)c4)nc3c12 [Compound I-40, 3-((9-isopropylisoxazolo[5,4-h]quinazolin-2-yl)amino)benzenesulfonamide] | 2 | 6 | 10 |
| CC(C)c1noc2ccc3cnc(Nc4ccc(N5CCOCC5)cc4F)nc3c12 [Compound I-32, N-(2-fluoro-4-morpholinophenyl)-9-isopropylisoxazolo[5,4-h] quinazolin-2-amine] | 150 | 359 | 294 |
| CC(C)c1noc2c1-c1nc(Nc3ccc(N4CCNCC4)c(F)c3)ncc1CC2 [Compound I-38, N-(3-fluoro-4-(piperazin-1-yl)phenyl)-9-isopropyl-5,6-dihydroisoxazolo[5,4-H] quinazolin-2-amine] | 7 | 21 | 10 |
